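48-hour exposure; five concentrations; linearly interpolated endpoints. TGI denotes the concentration required for complete inhibition of growth.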
Columns and labels:
Experiment in all cases: NCI-60 cell line screen, 48 h
HOP-62 NSCLC = system: HOP-62 NSCLC
HT29 colon = system: HT29 colon
U251 CNS = system: U251 CNS
K-562 leukemia = system: K-562 leukemia
786-0 renal = system: 786-0 renal
HCT-116 colon = system: HCT-116 colon
EKVX NSCLC = system: EKVX NSCLC
SK-OV-3 ovarian = system: SK-OV-3 ovarian
LXFL 529 NSCLC = system: LXFL 529 NSCLC
DMS 273 small cell lung = system: DMS 273 small cell lung
KM20L2 colon = system: KM20L2 colon
OVCAR-8 ovarian = system: OVCAR-8 ovarian
NCI-H460 lung = system: NCI-H460 lung
HCT-15 colon = system: HCT-15 colon
SK-MEL-2 melanoma = system: SK-MEL-2 melanoma
SK-MEL-28 melanoma = system: SK-MEL-28 melanoma
HCC-2998 colon = system: HCC-2998 colon
SNB-75 CNS = system: SNB-75 CNS
CCRF-CEM leukemia = system: CCRF-CEM leukemia
ACHN renal = system: ACHN renal
MALME-3M melanoma = system: MALME-3M melanoma
M14 melanoma = system: M14 melanoma
OVCAR-3 ovarian = system: OVCAR-3 ovarian
HOP-92 NSCLC = system: HOP-92 NSCLC
UACC-257 melanoma = system: UACC-257 melanoma
SF-268 CNS = system: SF-268 CNS
M19-MEL melanoma = system: M19-MEL melanoma
TK-10 renal = system: TK-10 renal
SNB-19 CNS = system: SNB-19 CNS
SN12C renal = system: SN12C renal
OVCAR-5 ovarian = system: OVCAR-5 ovarian
SF-539 CNS = system: SF-539 CNS
HL-60(TB) leukemia = system: HL-60(TB) leukemia
DLD-1 colon = system: DLD-1 colon
CAKI-1 renal = system: CAKI-1 renal
SR leukemia = system: SR leukemia
RPMI-8226 leukemia = system: RPMI-8226 leukemia
UO-31 renal = system: UO-31 renal
SF-295 CNS = system: SF-295 CNS
COLO 205 colon = system: COLO 205 colon
NCI-H522 lung = system: NCI-H522 lung
IGROV1 ovarian = system: IGROV1 ovarian
NCI-H23 lung = system: NCI-H23 lung
KM12 colon = system: KM12 colon
HOP-18 NSCLC = system: HOP-18 NSCLC
A549 NSCLC = system: A549 NSCLC
LOX IMVI melanoma = system: LOX IMVI melanoma
SK-MEL-5 melanoma = system: SK-MEL-5 melanoma
SW-620 colon = system: SW-620 colon
UACC-62 melanoma = system: UACC-62 melanoma

Compound: CC(=O)N(C(C)=O)C1=C2c3ccccc3N(S(=O)(=O)c3ccccc3)C2n2c(=O)n(-c3ccccc3)c(=O)n2C1 (stereo not given)
- TGI (HOP-62 NSCLC): > 100 µM
- TGI (HT29 colon): > 100 µM
- TGI (U251 CNS): > 100 µM
- TGI (K-562 leukemia): > 100 µM
- TGI (786-0 renal): > 100 µM
- TGI (HCT-116 colon): > 100 µM
- TGI (EKVX NSCLC): 61.9 µM
- TGI (SK-OV-3 ovarian): > 100 µM
- TGI (LXFL 529 NSCLC): > 100 µM
- TGI (DMS 273 small cell lung): > 100 µM
- TGI (KM20L2 colon): > 100 µM
- TGI (OVCAR-8 ovarian): > 100 µM
- TGI (NCI-H460 lung): 42.3 µM
- TGI (HCT-15 colon): > 100 µM
- TGI (SK-MEL-2 melanoma): 47.5 µM
- TGI (SK-MEL-28 melanoma): 58.2 µM
- TGI (HCC-2998 colon): 62.4 µM
- TGI (SNB-75 CNS): 51.3 µM
- TGI (CCRF-CEM leukemia): > 100 µM
- TGI (ACHN renal): > 100 µM
- TGI (MALME-3M melanoma): 46.5 µM
- TGI (M14 melanoma): 69.4 µM
- TGI (OVCAR-3 ovarian): 81.9 µM
- TGI (HOP-92 NSCLC): 73.9 µM
- TGI (UACC-257 melanoma): > 100 µM
- TGI (SF-268 CNS): > 100 µM
- TGI (M19-MEL melanoma): 94.7 µM
- TGI (TK-10 renal): > 100 µM
- TGI (SNB-19 CNS): > 100 µM
- TGI (SN12C renal): > 100 µM
- TGI (OVCAR-5 ovarian): > 100 µM
- TGI (SF-539 CNS): 38.5 µM
- TGI (HL-60(TB) leukemia): 63.3 µM
- TGI (DLD-1 colon): > 100 µM
- TGI (CAKI-1 renal): > 100 µM
- TGI (SR leukemia): 39.5 µM
- TGI (RPMI-8226 leukemia): 40.2 µM
- TGI (UO-31 renal): > 100 µM
- TGI (SF-295 CNS): > 100 µM
- TGI (COLO 205 colon): 80.2 µM
- TGI (NCI-H522 lung): 39.5 µM
- TGI (IGROV1 ovarian): > 100 µM
- TGI (NCI-H23 lung): 95.9 µM
- TGI (KM12 colon): > 100 µM
- TGI (HOP-18 NSCLC): 86.4 µM
- TGI (A549 NSCLC): > 100 µM
- TGI (LOX IMVI melanoma): 81.3 µM
- TGI (SK-MEL-5 melanoma): 58.8 µM
- TGI (SW-620 colon): > 100 µM
- TGI (UACC-62 melanoma): 35.8 µM
